Reference: patent US11407767B2, “Heterocyclyl substituted pyrrolopyridines that are inhibitors of the CDK12 kinase” (The University of Nottingham, priority 2017, dated 2022)

Target: CDK12/CycK (Homo sapiens, UniProt Q9NYV4)
Test: Inhibition of CDK12 (ADP-Glo kinase assay)
Type: biochemical
Settings: 60 nM CDK12/CycK, 30 minutes pre-incubation, 1 μM ATP, 0.5 μM RBER-IRStide substrate, 1 h at 25° C., read-out: CDK12/cyclin K IC50
Method: Assay buffer comprised 50 mM HEPES pH 7.5, 1 mM DTT, 20 mM MgCl2, 3 mM MnCl2, 3 μM Na3VO4 and 50 μg/ml PEG8000. Kinase reactions were carried out in 384-well Optiplates™ (PerkinElmer 6007299). Test compounds were dissolved & diluted in dimethyl sulfoxide (DMSO) and cross diluted into assay buffer with a final DMSO concentration of 1% (v/v) in the assay. Test compounds (or 1% DMSO in control and blank wells) were pre-incubated with 60 nM CDK12/CycK for 30 minutes. After this time 1 μM Adenosine-5′-triphosphate (ATP) and 0.5 μM RBER-IRStide substrate (ProQinase 0863-0000-1) were added to commence the kinase reaction. Incubations were carried out for 1 h at 25° C. with kinase activity determined using the ADP-Glo™ reagent from Promega according to the manufacturer's instructions. Light generated is proportional to kinase activity and measured using a luminometer (EnVision, PerkinElmer). The signal obtained in the blank wells (containing no kinase) was subtracted from all other wells and IC50 values were determined by fitting a sigmoidal curve to % inhibition of control versus Log10 compound concentration.

CDK12/CycK, sequence (Q9NYV4 whole entry): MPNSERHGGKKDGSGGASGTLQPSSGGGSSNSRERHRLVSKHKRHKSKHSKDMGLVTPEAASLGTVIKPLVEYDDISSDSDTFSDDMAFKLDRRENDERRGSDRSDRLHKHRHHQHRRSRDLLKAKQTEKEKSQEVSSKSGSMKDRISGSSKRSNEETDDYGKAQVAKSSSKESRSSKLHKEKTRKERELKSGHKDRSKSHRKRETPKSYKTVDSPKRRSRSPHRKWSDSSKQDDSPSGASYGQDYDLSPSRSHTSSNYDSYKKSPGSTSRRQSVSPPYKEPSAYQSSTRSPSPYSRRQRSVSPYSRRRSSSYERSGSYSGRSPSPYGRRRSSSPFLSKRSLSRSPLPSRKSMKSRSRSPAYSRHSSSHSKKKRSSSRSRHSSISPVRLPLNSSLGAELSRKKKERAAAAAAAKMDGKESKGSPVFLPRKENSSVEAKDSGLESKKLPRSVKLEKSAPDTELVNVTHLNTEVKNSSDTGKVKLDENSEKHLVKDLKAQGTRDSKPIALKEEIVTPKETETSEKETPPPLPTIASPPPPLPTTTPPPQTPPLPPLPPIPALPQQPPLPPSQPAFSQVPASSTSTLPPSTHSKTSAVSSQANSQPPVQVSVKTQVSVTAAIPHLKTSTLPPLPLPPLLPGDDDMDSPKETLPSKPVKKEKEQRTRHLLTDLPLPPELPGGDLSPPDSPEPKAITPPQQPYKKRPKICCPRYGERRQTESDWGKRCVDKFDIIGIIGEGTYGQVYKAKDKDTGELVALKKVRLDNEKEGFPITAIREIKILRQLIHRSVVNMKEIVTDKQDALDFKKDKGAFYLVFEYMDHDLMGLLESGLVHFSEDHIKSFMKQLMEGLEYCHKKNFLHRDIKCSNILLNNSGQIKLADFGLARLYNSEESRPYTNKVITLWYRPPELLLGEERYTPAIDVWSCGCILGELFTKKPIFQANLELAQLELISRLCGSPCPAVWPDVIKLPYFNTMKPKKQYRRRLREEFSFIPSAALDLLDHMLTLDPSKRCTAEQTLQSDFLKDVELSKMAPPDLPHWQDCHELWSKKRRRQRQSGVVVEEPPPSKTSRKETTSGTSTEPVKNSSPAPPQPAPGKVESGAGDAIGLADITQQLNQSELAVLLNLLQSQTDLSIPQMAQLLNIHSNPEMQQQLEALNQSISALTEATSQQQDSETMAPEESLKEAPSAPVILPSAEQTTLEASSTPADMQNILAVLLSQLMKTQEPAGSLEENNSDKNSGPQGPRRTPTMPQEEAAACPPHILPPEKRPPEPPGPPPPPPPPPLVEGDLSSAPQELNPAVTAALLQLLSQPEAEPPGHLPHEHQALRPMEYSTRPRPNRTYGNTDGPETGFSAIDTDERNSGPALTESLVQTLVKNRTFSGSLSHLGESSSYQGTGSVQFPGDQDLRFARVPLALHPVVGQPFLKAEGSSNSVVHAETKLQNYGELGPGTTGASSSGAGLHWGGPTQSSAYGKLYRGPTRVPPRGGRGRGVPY
CDK12/CycK, sequence (O75909 whole entry partner): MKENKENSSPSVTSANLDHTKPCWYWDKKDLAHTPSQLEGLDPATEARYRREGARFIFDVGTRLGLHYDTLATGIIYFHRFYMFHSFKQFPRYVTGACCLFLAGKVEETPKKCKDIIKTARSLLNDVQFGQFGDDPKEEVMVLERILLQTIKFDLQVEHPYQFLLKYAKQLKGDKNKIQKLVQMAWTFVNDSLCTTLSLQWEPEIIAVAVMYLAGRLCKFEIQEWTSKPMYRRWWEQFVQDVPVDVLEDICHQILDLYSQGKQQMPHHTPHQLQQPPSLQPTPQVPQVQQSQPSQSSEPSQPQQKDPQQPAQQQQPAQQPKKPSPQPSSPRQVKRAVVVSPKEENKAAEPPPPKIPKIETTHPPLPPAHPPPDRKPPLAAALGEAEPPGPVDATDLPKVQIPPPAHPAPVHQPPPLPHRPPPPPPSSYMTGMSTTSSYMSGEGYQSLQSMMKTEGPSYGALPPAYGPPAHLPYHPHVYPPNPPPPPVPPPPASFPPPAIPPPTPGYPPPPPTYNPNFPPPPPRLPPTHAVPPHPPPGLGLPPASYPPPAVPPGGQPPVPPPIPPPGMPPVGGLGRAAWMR

| IC50 | SMILES |
| --- | --- |
| < 0.1 µM | C=CC(=O)N1CCC1C(=O)NCCc1cc2c(-c3cnn4ncccc34)ccnc2[nH]1 (single isomer, unassigned) [Example 40] |
| < 0.1 µM | C=CC(=O)N1CCO[C@@H](C(=O)NCCc2cc3c(-c4cnn5ncccc45)ccnc3[nH]2)C1 (single isomer, unassigned) [Example 61] |
| < 0.1 µM | CC(=O)N1CCO[C@H](C(=O)NCCc2cc3c(-c4cnn5ncccc45)ccnc3[nH]2)C1 (single isomer, unassigned) [Example 62] |
| 0.1 to 1 µM | c1cnn2ncc(-c3ccnc4[nH]c([C@@H]5CCNC5)cc34)c2c1 (single isomer, unassigned) [Example 124, 3-(2-(Pyrrolidin-3-yl)-1H-pyrrolo[2,3-b]pyridin-4-yl)pyrazolo[1,5-b]pyridazine] |
| 0.1 to 1 µM | c1cnn2ncc(-c3ccnc4[nH]c([C@H]5CCNC5)cc34)c2c1 (single isomer, unassigned) [Example 125, 3-(2-(Pyrrolidin-3-yl)-1H-pyrrolo[2,3-b]pyridin-4-yl)pyrazolo[1,5-b]pyridazine] |
| < 0.1 µM | C=CC(=O)Nc1ccc(C(=O)N2CC[C@@H](c3cc4c(-c5cnn6ncccc56)ccnc4[nH]3)C2)cc1 (single isomer, unassigned) [Example 148, N-(4-(3-(4-(Pyrazolo[1,5-b]pyridazin-3-yl)-1H-pyrrolo[2,3-b]pyridin-2-yl)pyrrolidine-1-carbonyl)phenyl)acrylamide] |
| < 0.1 µM | C=CC(=O)Nc1cccc(C(=O)N2CC[C@@H](c3cc4c(-c5cnn6ncccc56)ccnc4[nH]3)C2)c1 (single isomer, unassigned) [Example 149, N-(3-(3-(4-(Pyrazolo[1,5-b]pyridazin-3-yl)-1H-pyrrolo[2,3-b]pyridin-2-yl)pyrrolidine-1-carbonyl)phenyl)acrylamide] |
| 1 to 30 µM | Cc1cc(-c2cnn3ncccc23)c2cc[nH]c2n1 [Example 1, 3-(6-Methyl-1H-pyrrolo[2,3-b]pyridin-4-yl)pyrazolo[1,5-b]pyridazine] |
| 1 to 30 µM | CN(C)C(=O)c1cc2c(-c3cnn4ncccc34)ccnc2[nH]1 [Example 2, N,N-Dimethyl-4-(pyrazolo[1,5-b]pyridazin-3-yl)-1H-pyrrolo[2,3-b]pyridine-2-carboxamide] |
| 1 to 30 µM | COCCNC(=O)c1cc2c(-c3cnn4ncccc34)ccnc2[nH]1 [Example 3, N-(2-Methoxyethyl)-4-(pyrazolo[1,5-b]pyridazin-3-yl)-1H-pyrrolo[2,3-b]pyridine-2-carboxamide] |
| 1 to 30 µM | CC(C)CNC(=O)c1cc2c(-c3cnn4ncccc34)ccnc2[nH]1 [Example 4, N-Isobutyl-4-(pyrazolo[1,5-b]pyridazin-3-yl)-1H-pyrrolo[2,3-b]pyridine-2-carboxamide] |
| 1 to 30 µM | CN(C)CCNC(=O)c1cc2c(-c3cnn4ncccc34)ccnc2[nH]1 [Example 5, N-(2-(Dimethylamino)ethyl)-4-(pyrazolo[1,5-b]pyridazin-3-yl)-1H-pyrrolo[2,3-b]pyridine-2-carboxamide] |
| 1 to 30 µM | Cc1c[nH]c2nccc(-c3cnn4ncccc34)c12 [Example 8, 3-(3-Methyl-1H-pyrrolo[2,3-b]pyridin-4-yl)pyrazolo[1,5-b]pyridazine] |
| 1 to 30 µM | Cc1cnc2[nH]ccc2c1-c1cnn2ncccc12 [Example 9, 3-(5-Methyl-1H-pyrrolo[2,3-b]pyridin-4-yl)pyrazolo[1,5-b]pyridazine] |
| 1 to 30 µM | c1cnn2ncc(-c3ccnc4[nH]c(CN5CCOCC5)cc34)c2c1 [Example 12, 4-((4-(Pyrazolo[1,5-b]pyridazin-3-yl)-1H-pyrrolo[2,3-b]pyridin-2-yl)methyl)morpholine] |
| 1 to 30 µM | O=C(CN1CCOCC1)NCc1cc2c(-c3cnn4ncccc34)ccnc2[nH]1 [Example 13, 2-Morpholino-N-((4-(pyrazolo[1,5-b]pyridazin-3-yl)-1H-pyrrolo[2,3-b]pyridin-2-yl)methyl)acetamide] |
| 1 to 30 µM | CN1CCN(CC(=O)NCc2cc3c(-c4cnn5ncccc45)ccnc3[nH]2)CC1 [Example 14, 2-(4-Methylpiperazin-1-yl)-N-((4-(pyrazolo[1,5-b]pyridazin-3-yl)-1H-pyrrolo[2,3-b]pyridin-2-yl)methyl)acetamide] |
| 1 to 30 µM | CC(C)(C)OC(=O)N1CCN(Cc2cc3c(-c4cnn5ncccc45)ccnc3[nH]2)CC1 [Example 15, tert-Butyl 4-((4-(pyrazolo[1,5-b]pyridazin-3-yl)-1H-pyrrolo[2,3-b]pyridin-2-yl)methyl)piperazine-1-carboxylate] |

| IC50 | SMILES |
| --- | --- |
| 0.1 to 1 µM | CN1CCN(Cc2cc3c(-c4cnn5ncccc45)ccnc3[nH]2)CC1 [Example 16, 3-(2-((4-Methylpiperazin-1-yl)methyl)-1H-pyrrolo[2,3-b]pyridin-4-yl)pyrazolo[1,5-b]pyridazine] |
| 1 to 30 µM | CN(C)CCNCc1cc2c(-c3cnn4ncccc34)ccnc2[nH]1 [Example 17, N1,N1-Dimethyl-N2-((4-(pyrazolo[1,5-b]pyridazin-3-yl)-1H-pyrrolo[2,3-b]pyridin-2-yl)methyl)ethane-1,2-diamine] |
| 1 to 30 µM | c1ccn2ncc(-c3ccnc4[nH]ccc34)c2c1 [Example 18, 4-(Pyrazolo[1,5-a]pyridin-3-yl)-1H-pyrrolo[2,3-b]pyridine] |
| 1 to 30 µM | CCn1nccc1-c1ccnc2[nH]ccc12 [Example 19, 4-(1-Ethyl-1H-pyrazol-5-yl)-1H-pyrrolo[2,3-b]pyridine] |
| 1 to 30 µM | COc1cnn2ncc(-c3ccnc4[nH]ccc34)c2c1 [Example 23, 5-Methoxy-3-(1H-pyrrolo[2,3-b]pyridin-4-yl)pyrazolo[1,5-b]pyridazine] |
| 1 to 30 µM | COCCOc1cnn2ncc(-c3ccnc4[nH]ccc34)c2c1 [Example 24, 5-(2-Methoxyethoxy)-3-(1H-pyrrolo[2,3-b]pyridin-4-yl)pyrazolo[1,5-b]pyridazine] |
| 1 to 30 µM | CC1(C)OCC(COc2cnn3ncc(-c4ccnc5[nH]ccc45)c3c2)O1 (stereo not drawn) [Example 25, 5-((2,2-Dimethyl-1,3-dioxolan-4-yl)methoxy)-3-(1H-pyrrolo[2,3-b]pyridin-4-yl)pyrazolo[1,5-b]pyridazine] |
| 1 to 30 µM | Cc1ccc2c(-c3ccnc4[nH]ccc34)cnn2n1 [Example 26, 6-Methyl-3-(1H-pyrrolo[2,3-b]pyridin-4-yl)pyrazolo[1,5-b]pyridazine] |
| 1 to 30 µM | c1cnc2ncc(-c3ccnc4[nH]ccc34)n2c1 [Example 29, 3-(1H-Pyrrolo[2,3-b]pyridin-4-yl)imidazo[1,2-a]pyrimidine] |
| 0.1 to 1 µM | NCCc1cc2c(-c3cnn4ncccc34)ccnc2[nH]1 [Example 30, 2-(4-(Pyrazolo[1,5-b]pyridazin-3-yl)-1H-pyrrolo[2,3-b]pyridin-2-yl)ethan-1-amine] |
| 0.1 to 1 µM | CCNCCc1cc2c(-c3cnn4ncccc34)ccnc2[nH]1 [Example 31, N-ethyl-2-(4-(pyrazolo[1,5-b]pyridazin-3-yl)-1H-pyrrolo[2,3-b]pyridin-2-yl)ethan-1-amine] |
| 0.1 to 1 µM | O=C(NCCc1cc2c(-c3cnn4ncccc34)ccnc2[nH]1)[C@@H]1CCCN1C(=O)CCl [Example 41, (S)-1-(2-Chloroacetyl)-N-(2-(4-(pyrazolo[1,5-b]pyridazin-3-yl)-1H-pyrrolo[2,3-b]pyridin-2-yl)ethyl)pyrrolidine-2-carboxamide] |
| 0.1 to 1 µM | C=CC(=O)N1CCC[C@H]1C(=O)N(C)CCc1cc2c(-c3cnn4ncccc34)ccnc2[nH]1 [Example 46, (S)-1-Acryloyl-N-methyl-N-(2-(4-(pyrazolo[1,5-b]pyridazin-3-yl)-1H-pyrrolo[2,3-b]pyridin-2-yl)ethyl)pyrrolidine-2-carboxamide] |
| 1 to 30 µM | C=CC(=O)N1CCC[C@@H]1C(=O)N(C)CCc1cc2c(-c3cnn4ncccc34)ccnc2[nH]1 [Example 47, (R)-1-Acryloyl-N-methyl-N-(2-(4-(pyrazolo[1,5-b]pyridazin-3-yl)-1H-pyrrolo[2,3-b]pyridin-2-yl)ethyl)pyrrolidine-2-carboxamide] |
| 0.1 to 1 µM | C=CC(=O)N1CCC[C@H](C(=O)N(C)CCc2cc3c(-c4cnn5ncccc45)ccnc3[nH]2)C1 [Example 48, (S)-1-Acryloyl-N-methyl-N-(2-(4-(pyrazolo[1,5-b]pyridazin-3-yl)-1H-pyrrolo[2,3-b]pyridin-2-yl)ethyl)piperidine-3-carboxamide] |
| 0.1 to 1 µM | C=CC(=O)Nc1cccc(C(=O)N(C)CCc2cc3c(-c4cnn5ncccc45)ccnc3[nH]2)c1 [Example 49, 3-Acrylamido-N-methyl-N-(2-(4-(pyrazolo[1,5-b]pyridazin-3-yl)-1H-pyrrolo[2,3-b]pyridin-2-yl)ethyl)benzamide] |
| 1 to 30 µM | C=CC(=O)N1CCC[C@H]1C(=O)N(CC)CCc1cc2c(-c3cnn4ncccc34)ccnc2[nH]1 [Example 50, (S)-1-Acryloyl-N-ethyl-N-(2-(4-(pyrazolo[1,5-b]pyridazin-3-yl)-1H-pyrrolo[2,3-b]pyridin-2-yl)ethyl)pyrrolidine-2-carboxamide] |
| 1 to 30 µM | C=CC(=O)N1CCC[C@H]1C(=O)NCCc1cc2c(-c3ccnn3C)ccnc2[nH]1 [Example 51, (S)-1-Acryloyl-N-(2-(4-(1-methyl-1H-pyrazol-5-yl)-1H-pyrrolo[2,3-b]pyridin-2-yl)ethyl)pyrrolidine-2-carboxamide] |
